Assay results from patent US20040029774A1, “Composition and methods for the treatment of musculoskeletal disorders and collagen and elastin deficiencies” (priority 2002, published 2004).
One block for each compound: values may come before it.

Tests used:
[1] = Solubility of rejuvenating ingredients in acidified deionized water mimicking the stomach
Procedure: In order to determine the amount of rejuvenating-nutrient that may be completely dissolved in water under conditions similar to that of stomach, the following study was executed: Deionized water was heated to 98° F.-99° F. to mimic the temperature of the human body. Adjustment of pH of the water to 2.7-2.9 was accomplished using hydrochloric acid to effect acidic conditions of the human stomach. […] Water/joints products were placed in a heated water bath with continuous agitation. Solubility of various joints products was compared at 30 minutes, one hour and two hours.
The following data reflect the percentage of product solubilized compared to added concentration at 0 minutes: […]

[2] = cited from earlier work

Compound: Chondroitin sulfate
% SOLUBILITY 30 MINS. ([1]; 10% concentration, water 98-99° F., pH 2.7-2.9): 100%
% SOLUBILITY 30 MINS. ([1]; 30% concentration, water 98-99° F., pH 2.7-2.9): 100%
% SOLUBILITY 30 MINS. ([1]; 50% concentration, water 98-99° F., pH 2.7-2.9): 100%
soluble at 50% concentration ([1]; 50% concentration, water 98-99° F., pH 2.7-2.9, time not given): 100%
% SOLUBILITY 30 MINS. ([1]; 70% concentration, water 98-99° F., pH 2.7-2.9): 20%
% SOLUBILITY 1 HR. ([1]; 70% concentration, water 98-99° F., pH 2.7-2.9, one hour): 20%
% SOLUBILITY 2 HRS. ([1]; 70% concentration, water 98-99° F., pH 2.7-2.9, two hours): 20%

Compound: N[C@H]1C(O)O[C@H](CO)[C@@H](O)[C@@H]1O.O=S(=O)(O)O (some centres unmarked) [glucosamine sulfate]
Clinical improvement of symptoms, persistence ([2]; after discontinuation of oral administration): up to four weeks
Clinical improvement of symptoms, onset ([2]; after oral administration): as early as one week

% SOLUBILITY 2 HRS. ([1]; 2 h, pH 2.7): 30%
Compound: N[C@H]1C(O)O[C@H](CO)[C@@H](O)[C@@H]1O (some centres unmarked) [GLUCOSAMINE, Glucosamine]

% SOLUBILITY 1 HR. ([1]; pH 2.7): 10%
% SOLUBILITY 2 HRS. ([1]; pH 2.7): 15%
Compound: Gelatin

% SOLUBILITY 1 HR. ([1]; 1 h, pH 2.7): 20%
% SOLUBILITY 2 HRS. ([1]; 2 h, pH 2.7): 30%
Compound: CS(C)(=O)=O [MSM, Methyl-Sulfonyl-Methane]
